Legend:
Type in all cases: cell-based
[1] = test system: SARS corona virus (strain Urbani)
[2] = test system: Rift Valley fever virus (strain MP-12)
[3] = test system: Polio virus (strain Type 3, WM-3)
[4] = test system: Tacaribe virus (strain TRVL-11573)

Row | SMILES | activity against Sars corona virus (in words) [1] | activity against Rift valley fever virus (in words) [2] | antiviral activity against Polio virus (in words) [3] | activity against Takaribe virus (in words) [4]
1 | C[C@]12CC[C@H](OC(=O)Cc3ccccc3)C[C@@H]1CC[C@@H]1[C@@H]2CC[C@]2(C)C(=NNC(=O)c3cccnc3)CC[C@@H]12 [Compound 5, 3 β-Phenylacetoxy-5α-androstan-17-one Nicotinoylhydrazone] | weakly active | weakly active | moderate | weak activity
2 | C[C@]12CC[C@H](OC(=O)Cc3ccccc3)C[C@@H]1CC[C@@H]1[C@@H]2CC[C@]2(C)C(=NNC(=O)c3cccc([N+](=O)[O-])c3)CC[C@@H]12 [Compound 4, 3 β -Phenylacetoxy-5α-androstan-17-one m-nitrobenzoylhydrazone] | weakly active | – | high | –
3 | CC(=NNc1ccc([N+](=O)[O-])cc1)C1=CC[C@H]2[C@@H]3CC[C@H]4C[C@@H](O)CC[C@]4(C)[C@H]3CC[C@]12C [Compound 12, 5′-preg-16-en-3β-ol-20-one p-nitrophenylhydrazone] | – | weakly active | moderate | –
